Experimental data taken from US12428394B2, “2,4-disubstituted pyrimidine derivative, preparation method therefor and use thereof” (CHENGDU ZENITAR BIOMEDICAL TECHNOLOGY CO., LTD., priority 2019, dated 2025).

Experiments:
FLT3 = biological target: T1, FLT3 (Homo sapiens, UniProt P36888); assay: In vitro kinase activity experiment, FLT3; assay type: biochemical; settings: 40 min; inhibition rate of enzyme at 500 nM; measured by Eurofins; read-out: Kinase activity @ 500 nM (%) FLT3
T1 construct: purchased Eurofins
T1 sequence (P36888 27-993): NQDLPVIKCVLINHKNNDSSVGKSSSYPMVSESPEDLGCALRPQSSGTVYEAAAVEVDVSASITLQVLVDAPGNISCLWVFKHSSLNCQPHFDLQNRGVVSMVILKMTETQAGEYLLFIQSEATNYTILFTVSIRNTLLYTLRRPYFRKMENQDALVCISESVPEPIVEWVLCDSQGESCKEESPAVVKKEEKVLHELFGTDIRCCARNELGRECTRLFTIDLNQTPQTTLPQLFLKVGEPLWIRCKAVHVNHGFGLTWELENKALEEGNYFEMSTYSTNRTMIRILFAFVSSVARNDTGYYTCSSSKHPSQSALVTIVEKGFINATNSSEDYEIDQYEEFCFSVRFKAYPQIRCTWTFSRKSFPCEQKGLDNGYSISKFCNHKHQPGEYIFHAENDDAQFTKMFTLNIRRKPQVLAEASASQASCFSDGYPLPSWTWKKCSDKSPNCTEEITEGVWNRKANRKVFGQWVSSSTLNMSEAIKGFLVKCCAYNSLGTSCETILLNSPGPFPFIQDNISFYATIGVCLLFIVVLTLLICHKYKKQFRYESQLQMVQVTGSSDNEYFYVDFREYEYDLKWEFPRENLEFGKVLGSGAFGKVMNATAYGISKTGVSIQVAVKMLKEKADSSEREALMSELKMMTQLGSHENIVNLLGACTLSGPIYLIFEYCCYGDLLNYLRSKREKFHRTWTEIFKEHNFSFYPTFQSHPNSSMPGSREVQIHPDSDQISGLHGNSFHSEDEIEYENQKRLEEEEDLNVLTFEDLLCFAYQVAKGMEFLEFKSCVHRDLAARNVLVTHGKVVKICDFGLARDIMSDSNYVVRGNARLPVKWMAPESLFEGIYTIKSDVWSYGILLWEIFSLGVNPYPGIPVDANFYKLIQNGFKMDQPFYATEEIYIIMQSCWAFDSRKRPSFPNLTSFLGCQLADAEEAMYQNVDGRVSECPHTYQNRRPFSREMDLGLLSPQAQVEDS
Description: (§1) Buffer solution ([…], pH 7.0, 0.2 mm EDTA, 10 mM mncl2), kinase to be tested, substrate of kinase to be tested, 10 mM magnesium acetate and γ33P-ATP solution, and compounds with different concentrations were added to a reaction tube in turn, then MgATP was added to initiate the enzyme reaction process, and incubated at room temperature for 40 min. Then, the reaction was terminated with 5 μl of […], and 10 μl of the reaction solution was titrated onto the Filtermat A membrane, washed with 75 mM phosphate solution for three times, each time for 5 min., and then washed with methanol once. Finally, the Filtermat A membrane was dried and the scintillation count was carried out.

[1] = system: MV4-11 cells (FLT3-ITD+/+); assay: Inhibition of cell proliferation by MTT experiment, MV4-11; assay type: cell-based, human; settings: Homo sapiens, MV4-11; MTT, 72 h; read-out: IC50 value on cell proliferation inhibition, MV4-11 FLT3-ITD+/+
Text: (§2) MV4-11, MOLM-13 and SET-2 were used to determine the influence of the test compound of the present invention on the activity of cancer cells. MV4-11 and MOLM-13 were human leukemia cell lines from American Type Culture Collection (ATCC), expressing FLT3 receptor and containing FLT3-ITD mutation; and SET-2 was a primary thrombocythemia cell purchased from Chengdu Bowerston Biotechnology Co., Ltd., China, continuously expressing JAK2 receptor and containing the mutation of V617F.
(§3) MV4-11, MOLM-13 and SET-2 cells were filled in a 96-well petri dish with 100 μL IMDM as the medium, containing 10% fetal bovine serum (100 mL/bottle, purchased from Grassland Lvye Bio-Engineering Materials Co., Ltd. and cryopreserved at −20° C.), and with 10,000-15,000 cells in each well. […] In each group, 3-5 replicate wells were set and incubated in 5% CO2 at 37° C. for 72 h. At the endpoint, 20 μL MTT (5 mg/mL) was added to each well, and the cells were incubated for another 1-3 h.
(§4) After the inhibition rate of each concentration of compound on cell proliferation activity was calculated, the dose-response curve and IC50 value were fitted by Graphpad prism software according to the compound treatment concentrations and corresponding inhibition rates.

JAK2 = biological target: T2, JAK2 (Homo sapiens, UniProt O60674); assay: In vitro kinase activity experiment, JAK2; assay type: biochemical; settings: inhibition rate of enzyme at 500 nM; measured by Eurofins
T2 construct: purchased Eurofins
Description: as §1

SET-2 cells (JAK2 V617F) = assay: Inhibition of cell proliferation by MTT experiment, SET-2; assay type: cell-based; settings: Homo sapiens, SET-2; MTT, 72 h; read-out: IC50 value on cell proliferation inhibition, SET-2 (V617F)
Text: as §2, §3, §4

[2] = system: MOLM-13 cells (FLT3-ITD-/+); assay: Inhibition of cell proliferation by MTT experiment, MOLM-13; assay type: cell-based, human; settings: Homo sapiens, MOLM-13; MTT, 72 h; read-out: IC50 value on cell proliferation inhibition, MOLM-13 FLT3-ITD-/+
Text: as §2, §3, §4

T2 sequence (O60674 whole entry): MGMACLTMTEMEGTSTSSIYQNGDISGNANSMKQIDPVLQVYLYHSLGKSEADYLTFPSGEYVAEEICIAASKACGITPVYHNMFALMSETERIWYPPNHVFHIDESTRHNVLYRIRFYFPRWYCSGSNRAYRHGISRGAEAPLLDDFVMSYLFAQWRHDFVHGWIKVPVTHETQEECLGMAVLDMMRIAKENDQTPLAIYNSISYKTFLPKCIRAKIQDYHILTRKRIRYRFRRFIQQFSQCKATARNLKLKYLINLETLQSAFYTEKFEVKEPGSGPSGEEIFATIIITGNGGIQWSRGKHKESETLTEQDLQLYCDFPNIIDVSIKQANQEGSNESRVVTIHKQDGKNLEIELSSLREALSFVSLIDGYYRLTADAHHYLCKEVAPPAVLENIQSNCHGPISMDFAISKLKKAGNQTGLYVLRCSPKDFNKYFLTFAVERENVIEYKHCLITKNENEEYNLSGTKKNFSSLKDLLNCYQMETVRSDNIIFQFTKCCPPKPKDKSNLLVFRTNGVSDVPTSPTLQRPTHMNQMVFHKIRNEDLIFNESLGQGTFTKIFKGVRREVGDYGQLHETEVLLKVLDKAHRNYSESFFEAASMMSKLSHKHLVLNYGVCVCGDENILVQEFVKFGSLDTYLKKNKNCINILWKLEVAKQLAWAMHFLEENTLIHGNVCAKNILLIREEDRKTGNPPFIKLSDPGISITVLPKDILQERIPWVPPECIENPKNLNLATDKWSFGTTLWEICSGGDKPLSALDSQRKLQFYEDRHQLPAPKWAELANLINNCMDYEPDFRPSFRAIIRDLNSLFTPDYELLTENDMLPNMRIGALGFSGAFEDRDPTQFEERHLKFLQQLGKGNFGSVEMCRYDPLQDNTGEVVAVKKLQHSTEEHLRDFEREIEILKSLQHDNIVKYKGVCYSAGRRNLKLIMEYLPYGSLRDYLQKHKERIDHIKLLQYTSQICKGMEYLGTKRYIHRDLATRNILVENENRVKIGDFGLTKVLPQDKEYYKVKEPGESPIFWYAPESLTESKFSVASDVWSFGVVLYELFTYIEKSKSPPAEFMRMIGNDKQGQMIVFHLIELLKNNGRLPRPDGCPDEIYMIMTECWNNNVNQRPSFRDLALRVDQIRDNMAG

| inhibition at 0.5 µM (FLT3) | IC50 [1] | Kinase activity @ 500 nM (%) JAK2 (JAK2) | IC50 [2] | SMILES | IC50 (SET-2 cells (JAK2 V617F)) |
| --- | --- | --- | --- | --- | --- |
| 18% | > 1000 nM | 25% | > 1000 nM | CC(C)n1cc(-c2nc(Nc3ccc(N4CCN(C5CCN(C)CC5)CC4)cc3)ncc2F)cn1 [CLJ-31, 5-fluoro-N-(4-(4-(1-methylpiperidine-4-yl)piperazine-1-yl)phenyl)-4-(1-isopropyl-1H-pyrazole-4-yl) pyrimidine-2-amine] | > 1000 nM |
| 95% | 10 to 100 nM | 90% | 100 to 1000 nM | CC(C)n1cc(-c2nc(Nc3ccc(N4CCN(C5CCN(C)CC5)CC4)c(F)c3)ncc2F)cn1 [CLJ-32, 5-fluoro-N-(3-fluoro-4-(4-(1-methylpiperidine-4-yl)piperazine-1-yl)phenyl)-4-(1-isopropyl-1H-pyrazole-4-yl) pyrimidine-2-amine] | 100 to 1000 nM |
| 23% | > 1000 nM | 34% | > 1000 nM | CC(C)n1cc(-c2nc(Nc3ccc(N4CCC(N5CCCCC5)CC4)c(F)c3)ncc2F)cn1 [CLJ-33] | > 1000 nM |
| 95% | 10 to 100 nM | 93% | 100 to 1000 nM | Cc1nn(C(C)C)cc1-c1nc(Nc2ccc(N3CCN(C)CC3)c(F)c2)ncc1F [CLJ-34] | 100 to 1000 nM |
| 91% | 10 to 100 nM | 92% | 100 to 1000 nM | Cc1c(-c2nc(Nc3ccc(N4CCN(C)CC4)c(F)c3)ncc2F)cnn1C(C)C [CLJ-35] | 100 to 1000 nM |
| 99% | 10 to 100 nM | 97% | 10 to 100 nM | CC(C)n1cc(-c2nc(Nc3ccc(N4CCC(N(C)C)CC4)c(F)c3)ncc2F)cn1 [CLJ-36, 5-fluoro-N-(3-fluoro-4-(4-dimethylaminopiperidine-1-yl)phenyl)-4-(1-isopropyl-1H-pyrazole-4-yl) pyrimidine-2-amine] | 100 to 1000 nM |
| 97% | 10 to 100 nM | 98% | 100 to 1000 nM | COc1cc(Nc2ncc(F)c(-c3cnn(C(C)C)c3)n2)ccc1N1CCC(N(C)C)CC1 [CLJ-37, 5-fluoro-N-(3-methoxy-4-(4-dimethylaminopiperidine-1-yl)phenyl)-4-(1-isopropyl-1H-pyrazole-4-yl) pyrimidine-2-amine] | 100 to 1000 nM |
| 90% | 10 to 100 nM | 94% | 100 to 1000 nM | COc1cc(Nc2ncc(C)c(-c3cnn(C(C)C)c3)n2)ccc1N1CCC(N(C)C)CC1 [CLJ-39, 5-methyl-N-(3-methoxy-4-(4-dimethylaminopiperidine-1-yl)phenyl)-4-(1-isopropyl-1H-pyrazole-4-yl) pyrimidine-2-amine] | 100 to 1000 nM |
| 94% | 10 to 100 nM | 96% | 10 to 100 nM | Cc1cnc(Nc2ccc(N3CCN(C(=O)CO)CC3)c(F)c2)nc1-c1cnn(C(C)C)c1 [CLJ-40, 5-methyl-N-(3-fluoro-4-(4-hydroxyacetylpiperazine-1-yl)phenyl)-4-(1-isopropyl-1H-pyrazole-4-yl) pyrimidine-2-amine] | 100 to 1000 nM |
| 97% | 10 to 100 nM | 102% | 100 to 1000 nM | Cc1cnc(Nc2ccc(N3CCC(N(C)C(=O)CO)CC3)c(F)c2)nc1-c1cnn(C(C)C)c1 [CLJ-41, N-(1-(2-fluoro-4-((4-(1-isopropyl-1H-pyrazol-4-yl)-5-methylpyrimidine-2-yl)amino)phenyl)piperidine-4-yl)-2-hydroxy-N-methylacetamide] | 100 to 1000 nM |
| 95% | 10 to 100 nM | 100% | 100 to 1000 nM | Cc1cnc(Nc2ccc(N3CCC(CO)CC3)c(F)c2)nc1-c1cnn(C(C)C)c1 [CLJ-42, 5-methyl-N-(3-fluoro-4-(4-hydroxymethylpiperidine-1-yl)phenyl)-4-(1-isopropyl-1H-pyrazole-4-yl) pyrimidine-2-amine] | 100 to 1000 nM |
| 94% | 10 to 100 nM | 95% | 100 to 1000 nM | Cc1cnc(Nc2ccc(N3CCC(NCCO)CC3)c(F)c2)nc1-c1cnn(C(C)C)c1 [CLJ-43, 5-methyl-N-(3-fluoro-4-(4-hydroxyethylaminopiperidine-1-yl)phenyl)-4-(1-isopropyl-1H-pyrazole-4-yl) pyrimidine-2-amine] | 100 to 1000 nM |
| 98% | 1 to 10 nM | 91% | 10 to 100 nM | Cc1cnc(Nc2ccc(N3CCC(N(C)CCCO)CC3)c(F)c2)nc1-c1cnn(C(C)C)c1 [CLJ-45, 5-methyl-N-(3-fluoro-4-(4-N-hydroxypropyl-4-N-methylaminopiperidine-1-yl)phenyl)-4-(1-isopropyl-1H-pyrazole-4-yl) pyrimidine-2-amine] | 100 to 1000 nM |
| 98% | 1 to 10 nM | 102% | 10 to 100 nM | Cc1cnc(Nc2ccc(N3CCC(N(C)CCCCO)CC3)c(F)c2)nc1-c1cnn(C(C)C)c1 [CLJ-46, 5-methyl-N-(3-fluoro-4-(4-N-hydroxybutyl-4-N-methylaminopiperidine-1-yl)phenyl)-4-(1-isopropyl-1H-pyrazole-4-yl) pyrimidine-2-amine] | 100 to 1000 nM |
| 94% | 1 to 10 nM | 93% | 10 to 100 nM | Cc1cnc(Nc2ccc(N3CCC(N(C)CCCCCO)CC3)c(F)c2)nc1-c1cnn(C(C)C)c1 [CLJ-47, 5-methyl-N-(3-fluoro-4-(4-N-hydroxypentyl-4-N-methylaminopiperidine-1-yl)phenyl)-4-(1-isopropyl-1H-pyrazole-4-yl) pyrimidine-2-amine] | 100 to 1000 nM |
| 96% | 100 to 1000 nM | 93% | 100 to 1000 nM | CCOCCN(C)C1CCN(c2ccc(Nc3ncc(C)c(-c4cnn(C(C)C)c4)n3)cc2F)CC1 [CLJ-48, 5-methyl-N-(3-fluoro-4-(4-N-ethoxyethyl-4-N-methylaminopiperidine-1-yl)phenyl)-4-(1-isopropyl-1H-pyrazole-4-yl) pyrimidine-2-amine] | 100 to 1000 nM |
| 91% | 100 to 1000 nM | 95% | 100 to 1000 nM | CCCN(C)C1CCN(c2ccc(Nc3ncc(C)c(-c4cnn(C(C)C)c4)n3)cc2F)CC1 [CLJ-49, 5-methyl-N-(3-fluoro-4-(4-N-propyl-4-N-methylaminopiperidine-1-yl)phenyl)-4-(1-isopropyl-1H-pyrazole-4-yl) pyrimidine-2-amine] | 100 to 1000 nM |
